In brackets after ≈: the same amount, converted by molar mass.
What was measured:
[1] = tested on: melanoma B-16 tumor cells; experiment: Antitumor activity, life span prolongation in mice with intraperitoneally transplanted melanoma B-16 (NCI protocol 1,300); format: in vivo; details: intraperitoneally once daily for 9 consecutive days
Method: Therapeutic tests were carried out in mice according to NCI-protocol 1,300, Cancer Chemother, Reports, Part 3, 1972, Vol. 3, No. 2, in which melanoma B-16 tumor cells had been intraperitoneally transplanted, compound (I) being administered intraperitoneally once daily for 9 consecutive days.

Tetrahymena pyriformis W = experiment: Antiprotozoal activity, growth inhibition by serial dilution method; format: cell-based; details: 28° C., 44 to 48 hours, pH 7.0, serial dilution method
Method: Antiprotozoal activity of compound (I) was assayed with Tetrahymena pyriformis W as the test organism and a medium composed of 20 g tryptose-peptone (Difco Co.), 1 g yeast extract, 2 g glucose, 1000 ml distilled water, 10 ml 1 M phosphate buffer (pH 7.0) as the assay medium. The microorganism was incubated at 28° C. for 44 to 48 hours and the growth inhibitory activity of compound (I) was assayed by the serial dilution method.

Compound: COc1cc2cc(c1Cl)N(C)C(=O)CC(OC(=O)Nc1ccccc1)C1(C)OC1C(C)C1CC(O)(NC(=O)O1)C(OC)C=CC=C(C)C2 (centres unmarked) [Maytansinol 3-(N-phenyl)carbamate, maytansinol 3-N-phenylcarbamate]
- Antitumor activities B-16 (T/C%) ([1]; 100 μg/kg): 123%
- Antitumor activities B-16 (T/C%) ([1]; 200 μg/kg): 151%
- Antitumor activities B-16 (T/C%) ([1]; 400 μg/kg): 161%
- MIC (Tetrahymena pyriformis W): ≥ 8 µg/mL

Compound: COc1cc2cc(c1Cl)N(C)C(=O)CC(OC(=O)OC(C)C)C1(C)OC1C(C)C1CC(O)(NC(=O)O1)C(OC)C=CC=C(C)C2 (centres unmarked) [Maytansinol 3-isopropylcarbonate, maytansinol 3-isopropylcarbonate]
- Antitumor activities B-16 (T/C%) ([1]; 50 μg/kg): 150%
- Antitumor activities B-16 (T/C%) ([1]; 100 μg/kg): 171%
- Antitumor activities B-16 (T/C%) ([1]; 200 μg/kg): 171%
- MIC (Tetrahymena pyriformis W): 4 to 8 µg/mL (≈ 6.14 to 12.3 µM)

Source: patent US4263294A, “Maytansinoids, pharmaceutical compositions thereof and method of use thereof” (Takeda Chemical Industries, Ltd., priority 1978, dated 1981)
